Assay results as given in US8188273B2, “Insecticidal (1,3,5)-triazinyl phenyl hydrazones” (Dow AgroSciences, LLC., priority 2007, dated 2012).

Key:
[1] = test system: beet armyworm (Spodoptera exigua); assay: Insecticidal test on treated lepidopteran diet, beet armyworm; type: in vivo; details: 120 h, second-instar larvae on treated diet, 8 wells, dose of 50 mg/cm^2 [sic] (2000 ppm, 50 μL), dead insects counted 5 days after treatment, read-out: AVG LAPHEG 50 (percent control, beet army worm)
Experimental: (§1) The compounds identified in Table 1 were prepared according to the previous methods and were tested against beet armyworm and corn earworm as follows:
(§2) Insecticidal Test for Corn Earworm (Helicoverpa zea) and Beet Armyworm (Spodoptera exigua).
(§3) To prepare test solution, the test compound was formulated at 2000 ppm solution as 4 mg/2 mL of 9 acetone:1 tap water. 50 μL of the 2000 ppm (equivalent to 50 μg/cm^2 dose on diet surface area) test solution was pipetted upon the surface of 1 mL of lepidopteran diet (Southland Multi-Species Lepidopteran Diet) contained in each of eight wells per insect species (one well=1 replication). A second-instar corn earworm and beet armyworm was placed upon the treated diet in each well once the solvent had air-dried. Trays containing the treated diet and larvae were covered and then held in a growth chamber at 25° C., 50-55% RH, and 16 hr light:8 hr dark for 5 days. Observation were conducted 5 days after treatment and infestation. The number of dead insects of 8 per species per treatment was then determined and the results are given in Table 1 as a percent control at a dose of […].
(§4) Keys to the table: Mass spectral data were obtained using liquid chromatography mass spectroscopy (LC-MS). The masses are detected using electrospray ionization (ESI) and reported as Mol Ion (M+H, M−H); AVG LAPHEG 50 refers to activity against beet army worm (Spodoptera exigua) as defined above; AVG HELIZE 50 refers to activity against corn ear worm (Helicoverpa zea) as described above.

[2] = test system: corn earworm (Helicoverpa zea); assay: Insecticidal test on treated lepidopteran diet, corn earworm; type: in vivo; details: 120 h; second-instar larvae on treated diet, 8 wells; dose of 50 mg/cm^2 [sic] (2000 ppm, 50 μL); dead insects counted 5 days after treatment; read-out: AVG HELIZE 50 (percent control, corn ear worm)
Experimental: as §1, §2, §3, §4

Row | Structure (SMILES) | pest or weed control at 2000 µg/mL [1] [%] | pest or weed control at 2000 µg/mL [2] [%]
1 | Fc1ccc(Nc2nc(NCc3ccc(Cl)nc3)nc(N/N=C/c3ccc(C(F)(F)F)cc3)n2)cc1C(F)(F)F [Compound 65] | 100 | 100
2 | Cc1cnc(CNc2nc(N/N=C/c3cccc(OC(F)(F)C(F)F)c3)nc(Nc3ccc(F)c(C(F)(F)F)c3)n2)cn1 [Compound 56] | 100 | 63
3 | Fc1ccc(Nc2nc(NCc3ccc(Cl)nc3)nc(N/N=C/c3ccccc3Cl)n2)cc1C(F)(F)F [Compound 72] | 0 | 25
4 | FC(F)(F)Oc1ccc(/C=N/Nc2nc(Nc3ccc(OC(F)(F)F)cc3)nc(N3CCOCC3)n2)cc1 [Compound 4] | 100 | 100
5 | FC(F)C(F)(F)Oc1cccc(Nc2nc(NCc3ccc(Cl)nc3)nc(N/N=C/c3ccc(C(F)(F)F)cc3)n2)c1 [Compound 85] | 100 | 100
6 | CCNc1nc(N/N=C/c2ccc(OC(F)(F)F)cc2)nc(Nc2ccc(OC(F)(F)F)cc2)n1 [Compound 16] | 13 | 0
7 | Fc1ccc(Nc2nc(NCc3ccc(Cl)nc3)nc(N/N=C/c3ccc(OC(F)(F)F)cc3)n2)cc1C(F)(F)F [Compound 2, N-(6-Chloropyridin-3-ylmethyl)-N′-(4-fluoro-3-trifluoromethylphenyl)-6-{N′-[1-(4-trifluoromethoxyphenyl)-methylidene]-hydrazino}-[1,3,5]triazine-2,4-diamine] | 100 | 100
8 | Fc1ccc(Nc2nc(NCc3ccc(Cl)nc3)nc(N/N=C/c3cc(Cl)cc(Cl)c3)n2)cc1C(F)(F)F [Compound 67] | 100 | 100
9 | Fc1ccc(Nc2nc(NCc3ccc(Cl)nc3)nc(N/N=C/c3cccc(Br)c3)n2)cc1C(F)(F)F [Compound 70] | 100 | 100
10 | COCCNc1nc(N/N=C/c2ccc(OC(F)(F)F)cc2)nc(Nc2ccc(OC(F)(F)F)cc2)n1 [Compound 15] | 100 | 88
11 | COCC(C)Nc1nc(N/N=C/c2ccc(OC(F)(F)F)cc2)nc(Nc2ccc(OC(F)(F)F)cc2)n1 (centres unmarked) [Compound 24] | 100 | 100
12 | FC(F)(F)Oc1ccc(Nc2nc(N/N=C/c3ccccc3OC(F)(F)F)nc(N3CCOCC3)n2)cc1 [Compound 45] | 38 | 13
13 | FC(F)(F)Oc1ccc(/C=N/Nc2nc(NCCN3CCOCC3)nc(Nc3ccc(OC(F)(F)F)cc3)n2)cc1 [Compound 21] | 100 | 100
14 | Fc1ccc(Nc2nc(N/N=C/c3cccc(OC(F)(F)C(F)F)c3)nc(N3CCOCC3)n2)cc1C(F)(F)F [Compound 53] | 100 | 100
15 | COCCN(C)c1nc(N/N=C/c2ccc(OC(F)(F)F)cc2)nc(Nc2ccc(OC(F)(F)F)cc2)n1 [Compound 22] | 50 | 13
16 | Fc1ccc(Nc2nc(NCc3ccc(Cl)nc3)nc(N/N=C/c3ccc(Cl)cc3)n2)cc1C(F)(F)F [Compound 68] | 100 | 100
17 | Fc1ccccc1/C=N/Nc1nc(NCc2ccc(Cl)nc2)nc(Nc2ccc(F)c(C(F)(F)F)c2)n1 [Compound 69] | 100 | 100
18 | CCOCCN(CCOCC)c1nc(N/N=C/c2ccc(OC(F)(F)F)cc2)nc(Nc2ccc(F)c(C(F)(F)F)c2)n1 [Compound 48] | 13 | 0
19 | Fc1ccc(Nc2nc(NCc3ccc(Cl)nc3)nc(N/N=C/c3cccc(OC(F)(F)F)c3)n2)cc1C(F)(F)F [Compound 60] | 100 | 100
20 | FC(F)C(F)(F)Oc1ccc(Nc2nc(NCc3ccc(Cl)nc3)nc(N/N=C/c3ccc(Cl)c(Cl)c3)n2)cc1 [Compound 94] | 100 | 100
21 | Fc1ccc(Nc2nc(NCc3ccncc3)nc(N/N=C/c3ccc(OC(F)(F)F)cc3)n2)cc1C(F)(F)F [Compound 64] | 100 | 100
22 | Fc1ccc(Nc2nc(NCc3ccc(Cl)nc3)nc(N/N=C/c3cccc(OC(F)(F)C(F)F)c3)n2)cc1C(F)(F)F [Compound 51] | 100 | 100

Row | Structure (SMILES) | pest or weed control at 2000 µg/mL [1] [%] | pest or weed control at 2000 µg/mL [2] [%]
23 | FC(F)C(F)(F)Oc1ccc(/C=N/Nc2nc(Nc3ccc(OC(F)(F)F)cc3)nc(N3CCOCC3)n2)cc1 [Compound 1, (4-Morpholin-4-yl-6-{N′-[4-(1,1,2,2-tetrafluoroethoxy)benzylidene]hydrazino}-1,3,5-triazin-2-yl)-(4-trifluoromethoxyphenyl)amine] | 100 | 100
24 | FC(F)C(F)(F)Oc1ccc(Nc2nc(N/N=C/c3ccc(Cl)c(Cl)c3)nc(N3CCOCC3)n2)cc1 [Compound 89] | 100 | 100
25 | FC(F)(F)COc1nc(N/N=C/c2cccc(Cl)c2)nc(Nc2ccc(OC(F)(F)F)cc2)n1 [Compound 27] | 100 | 100
26 | FC(F)(F)Oc1ccc(Nc2nc(N/N=C/c3ccccc3C(F)(F)F)nc(N3CCOCC3)n2)cc1 [Compound 41] | 13 | 0
27 | Fc1ccc(Nc2nc(N/N=C/c3cccc(OC(F)(F)C(F)F)c3)nc(N3CCOCC3)n2)cc1F [Compound 78] | 13 | 88
28 | FC(F)(F)COc1nc(N/N=C/c2c(Cl)cccc2Cl)nc(Nc2ccc(OC(F)(F)F)cc2)n1 [Compound 35] | 100 | 100
29 | FC(F)(F)COc1nc(N/N=C/c2cccc(Br)c2)nc(Nc2ccc(OC(F)(F)F)cc2)n1 [Compound 29] | 100 | 100
30 | COc1ccc(CNc2nc(N/N=C/c3ccc(OC(F)(F)F)cc3)nc(Nc3ccc(F)c(C(F)(F)F)c3)n2)cn1 [Compound 82] | 100 | 100
31 | CCOC(=O)CNc1nc(N/N=C/c2ccc(OC(F)(F)F)cc2)nc(Nc2ccc(OC(F)(F)F)cc2)n1 [Compound 26] | 50 | 100
32 | Fc1cccc(/C=N/Nc2nc(NCc3ccc(Cl)nc3)nc(Nc3ccc(F)c(C(F)(F)F)c3)n2)c1 [Compound 73] | 100 | 100
33 | CC1CN(c2nc(N/N=C/c3cc(F)cc(C(F)(F)F)c3)nc(Nc3ccc(F)c(C(F)(F)F)c3)n2)CC(C)O1 (centres unmarked) [Compound 47] | 100 | 75
34 | FC(F)(F)COc1nc(N/N=C/c2ccc(Cl)c(Cl)c2)nc(Nc2ccc(OC(F)(F)F)cc2)n1 [Compound 30] | 100 | 100
35 | FC(F)C(F)(F)Oc1cccc(/C=N/Nc2nc(Nc3cccc(OC(F)(F)F)c3)nc(N3CCOCC3)n2)c1 [Compound 83] | 100 | 100
36 | Fc1ccc(Nc2nc(NCCc3cccnc3)nc(N/N=C/c3ccc(OC(F)(F)F)cc3)n2)cc1C(F)(F)F [Compound 80] | 100 | 100
37 | FC(F)(F)Oc1ccc(/C=N/Nc2ncnc(Nc3cccc(C(F)(F)F)c3)n2)cc1 [Compound 101] | 100 | 100
38 | COCCNc1nc(N/N=C/c2ccc(OC(F)(F)F)cc2)nc(Nc2cccc(C(F)(F)F)c2)n1 [Compound 19] | 100 | 75
39 | CC1CN(c2nc(N/N=C/c3ccc(OC(F)(F)C(F)F)cc3)nc(Nc3ccc(F)c(C(F)(F)F)c3)n2)CC(C)O1 (centres unmarked) [Compound 49] | 100 | 100
40 | CCOC(=O)CN(C)c1nc(N/N=C/c2ccc(OC(F)(F)F)cc2)nc(Nc2ccc(OC(F)(F)F)cc2)n1 [Compound 23] | 25 | 0
41 | FC(F)(F)Oc1ccc(/C=N/Nc2nc(NCCN3CCOCC3)nc(Nc3cccc(C(F)(F)F)c3)n2)cc1 [Compound 50] | 100 | 100
42 | CC1CN(c2nc(N/N=C/c3ccc(OC(F)(F)F)cc3)nc(Nc3ccc(F)c(C(F)(F)F)c3)n2)CC(C)O1 (centres unmarked) [Compound 46] | 100 | 100
43 | FC(F)(F)Oc1ccc(Nc2nc(N/N=C/c3cccc(Cl)c3)nc(N3CCOCC3)n2)cc1 [Compound 37] | 75 | 100
